In article PMC12539867, “Systematic identification of terpene synthases from sacred lotus (Nelumbo nucifera) and heterologous biosynthesis of the insecticidal and antimicrobial compound γ-eudesmol” (Horticulture Research, 2025):

Columns and labels:
NnTPS5 = target: T1, NnTPS5 (Nelumbo nucifera, UniProt A0A822ZHR2); test: yeast co-expression with GGPPS and NnTPS6 or NnTPS7, GC-MS of ent-kaurene; format: cell-based; conditions: substrate formed in the cell
T1 construct: gene HUJ06_002290; codon-optimised; S. cerevisiae JCR27 with NnTPS6 or NnTPS7 and GGPPS
T1 sequence (A0A822ZHR2 41-812): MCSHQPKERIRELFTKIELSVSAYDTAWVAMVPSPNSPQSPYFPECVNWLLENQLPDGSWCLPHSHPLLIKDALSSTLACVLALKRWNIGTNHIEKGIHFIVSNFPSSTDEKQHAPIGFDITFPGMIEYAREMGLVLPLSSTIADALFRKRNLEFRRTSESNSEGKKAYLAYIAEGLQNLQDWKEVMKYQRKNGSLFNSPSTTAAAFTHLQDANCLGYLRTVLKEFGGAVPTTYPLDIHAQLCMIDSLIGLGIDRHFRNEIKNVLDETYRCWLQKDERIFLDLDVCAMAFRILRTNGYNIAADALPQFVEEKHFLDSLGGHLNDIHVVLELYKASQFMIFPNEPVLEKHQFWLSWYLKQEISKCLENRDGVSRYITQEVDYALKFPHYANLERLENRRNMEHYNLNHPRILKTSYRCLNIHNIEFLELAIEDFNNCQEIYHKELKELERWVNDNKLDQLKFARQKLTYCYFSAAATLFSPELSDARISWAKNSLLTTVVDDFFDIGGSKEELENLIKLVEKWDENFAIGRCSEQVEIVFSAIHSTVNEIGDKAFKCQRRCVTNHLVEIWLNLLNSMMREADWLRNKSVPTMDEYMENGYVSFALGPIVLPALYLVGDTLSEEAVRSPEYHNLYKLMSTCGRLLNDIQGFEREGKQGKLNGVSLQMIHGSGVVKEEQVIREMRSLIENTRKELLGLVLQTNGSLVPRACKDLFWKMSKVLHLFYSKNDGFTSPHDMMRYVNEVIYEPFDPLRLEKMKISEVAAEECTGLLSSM

NnTPS10 = tested on: T2, NnTPS10; test: steady-state kinetics, purified enzyme; format: biochemical, Nelumbo nucifera; conditions: 25 °C, pH 7.5
T2 construct: TPS-a; 565 residues; codon-optimised; purified from E. coli for kinetics; S. cerevisiae JCR27 for mutants; N314, L530, V537; D461-Y537-D541 triad also printed

Structure (SMILES): C=C1CC[C@@H]2C(C)(C)CCC[C@@]2(C)[C@@H]1CC/C(C)=C/COP(=O)(O)OP(=O)(O)O [ent-CPP]
- yeast co-expression with GGPPS and NnTPS6 or NnTPS7, GC-MS of ent-kaurene (NnTPS5): combining NnTPS6, NnTPS5, and GGPPS, a new product (D1) can be identified as ent-kaurene

Structure (SMILES): CC(C)=CCC/C(C)=C/CC/C(C)=C/COP(=O)(O)OP(=O)(O)O [FPP]
- Km (NnTPS10): 16.7 µM
